Data reported in patent US10420341B2, “Herbicidal phenylpyrimidines” (BASF SE, priority 2015, dated 2019).

Assays:
SETFA = test: greenhouse pre-emergence herbicidal test; assay type: in vivo, Setaria faberi; conditions: pre-emergence method, scale from 0 to 100
Source text: (§1) The seeds of the test plants were sown separately for each species. For the pre-emergence treatment, the active ingredients, which had been suspended or emulsified in water, were applied directly after sowing by means of finely distributing nozzles. The containers were irrigated gently to promote germination and growth and subsequently covered with transparent plastic hoods until the plants had rooted. This cover caused uniform germination of the test plants, unless this had been impaired by the active ingredients. Depending on the species, the plants were kept at 10-25° C. or 20-35° C., respectively. The test period extended over 2 to 4 weeks. During this time, the plants were tended, and their response to the individual treatments was evaluated. Evaluation was carried out using a scale from 0 to 100. 100 means no emergence of the plants, or complete destruction of at least the aerial moieties, and 0 means no damage, or normal course of growth. […] The plants used in the greenhouse experiments were of the following species: [table]

ABUTH = test: greenhouse post-emergence herbicidal test; assay type: in vivo, Abutilon theophrasti; conditions: post-emergence method, scale from 0 to 100
Method in brief: (§2)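 Test plants were grown to 3–15 cm height, depending on habit, then sprayed post-emergence with active ingredient suspended or emulsified in water. Plants were kept at 10–25 °C or 20–35 °C by species for 2 to 4 weeks. Damage was scored 0–100, where 100 is complete destruction of aerial parts and 0 is normal growth.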

ECHCG [1] = test: greenhouse post-emergence herbicidal test; assay type: in vivo, Echinocloa crus-galli; conditions: post-emergence method, scale from 0 to 100
Method in brief: as §2

APESV = test: greenhouse pre-emergence herbicidal test; assay type: in vivo, Apera spica-venti; conditions: pre-emergence method, scale from 0 to 100
Method in brief: (§3)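 Species-dependent temperatures of 10-25° C. or 20-35° C. were maintained for a 2 to 4 week test after pre-emergence nozzle application of compounds dispersed in water. Efficacy was scored 0-100, with 100 denoting no emergence or total aerial destruction.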

LOLMU = test: greenhouse post-emergence herbicidal test; assay type: in vivo, Lolium multiflorum; conditions: post-emergence method, scale from 0 to 100
Source text: (§4) The seeds of the test plants were sown separately for each species. For the post-emergence treatment, the test plants were first grown to a height of 3 to 15 cm, depending on the plant habit, and only then treated with the active ingredients which had been suspended or emulsified in water. For this purpose, the test plants were either sown directly and grown in the same containers, or they were first grown separately as seedlings and transplanted into the test containers a few days prior to treatment. Depending on the species, the plants were kept at 10-25° C. or 20-35° C., respectively. The test period extended over 2 to 4 weeks. During this time, the plants were tended, and their response to the individual treatments was evaluated. Evaluation was carried out using a scale from 0 to 100. 100 means no emergence of the plants, or complete destruction of at least the aerial moieties, and 0 means no damage, or normal course of growth. […] The plants used in the greenhouse experiments were of the following species: [table]

POLCO = test: greenhouse post-emergence herbicidal test; assay type: in vivo, Polygonum convolvulus; conditions: post-emergence method, scale from 0 to 100
Method in brief: as §2

AMARE [2] = test: greenhouse post-emergence herbicidal test; assay type: in vivo, Amaranthus retroflexus; conditions: post-emergence method, scale from 0 to 100
Method in brief: as §2

ECHCG [3] = test: greenhouse pre-emergence herbicidal test; assay type: in vivo, Echinocloa crus-galli; conditions: pre-emergence method, application rate 500 g/ha, scale from 0 to 100
Method in brief: as §3

SETVI [4] = test: greenhouse pre-emergence herbicidal test; assay type: in vivo, Setaria viridis; conditions: pre-emergence method, application rate 1000 g/ha, scale from 0 to 100
Source text: as §1

AMARE [5] = test: greenhouse pre-emergence herbicidal test; assay type: in vivo, Amaranthus retroflexus; conditions: pre-emergence method, scale from 0 to 100
Source text: as §1

ALOMY = test: greenhouse post-emergence herbicidal test; assay type: in vivo, Alopercurus myosuroides; conditions: post-emergence method, application rate 1000 g/ha, scale from 0 to 100
Method in brief: as §2

AVEFA = test: greenhouse post-emergence herbicidal test; assay type: in vivo, Avena fatua; conditions: post-emergence method, scale from 0 to 100
Method in brief: as §2

SETVI [6] = test: greenhouse post-emergence herbicidal test; assay type: in vivo, Setaria viridis; conditions: post-emergence method, application rate 500 g/ha, scale from 0 to 100
Source text: as §4

O=C(O)c1nc(C2CCC2)ncc1-c1ccccc1Cl [example 2, 5-(2-Chlorophenyl)-2-cyclobutyl-pyrimidine-4-carboxylate]
herbicidal activity against SETFA (SETFA; application rate 1000 g/ha): good (A good herbicidal activity is given at values of at least 70)
herbicidal activity against ABUTH (ABUTH; application rate 1000 g/ha): good (A good herbicidal activity is given at values of at least 70)
herbicidal activity against ECHCG (ECHCG [1]; application rate 1000 g/ha): good (A good herbicidal activity is given at values of at least 70)

CCc1ncc(-c2ccccc2Cl)c(C(=O)O)n1 [example 6]
herbicidal activity against APESV (APESV; application rate 500 g/ha): very good (a very good herbicidal activity is given at values of at least 85)
herbicidal activity against ECHCG (ECHCG [1]; application rate 500 g/ha): very good (a very good herbicidal activity is given at values of at least 85)
herbicidal activity against LOLMU (LOLMU; application rate 500 g/ha): good (A good herbicidal activity is given at values of at least 70)
herbicidal activity against POLCO (POLCO; application rate 500 g/ha): very good (a very good herbicidal activity is given at values of at least 85)

CCc1ncc(-c2cc(C)ccc2C)c(C(=O)O)n1 [example 9]
herbicidal activity against APESV (APESV; application rate 1000 g/ha): very good (a very good herbicidal activity is given at values of at least 85)
herbicidal activity against SETFA (SETFA; application rate 1000 g/ha): very good (a very good herbicidal activity is given at values of at least 85)
herbicidal activity against ABUTH (ABUTH; application rate 1000 g/ha): very good (a very good herbicidal activity is given at values of at least 85)
herbicidal activity against AMARE (AMARE [2]; application rate 1000 g/ha): good (A good herbicidal activity is given at values of at least 70)

Cc1ccc(C)c(-c2cnc(C(C)C)nc2C(=O)O)c1 [example 34]
herbicidal activity against APESV (APESV; application rate 500 g/ha): very good (a very good herbicidal activity is given at values of at least 85)
herbicidal activity against ECHCG (ECHCG [3]): very good (a very good herbicidal activity is given at values of at least 85)
herbicidal activity against ECHCG (ECHCG [1]; application rate 500 g/ha): very good (a very good herbicidal activity is given at values of at least 85)
herbicidal activity against LOLMU (LOLMU; application rate 500 g/ha): good (A good herbicidal activity is given at values of at least 70)

COc1ccccc1-c1cnc(OC(C)C)nc1C(=O)O [example 74]
herbicidal activity against SETVI (SETVI [4]): good (A good herbicidal activity is given at values of at least 70)

COC(=O)c1nc(SC)ncc1-c1cc(C)ccc1Cl [example 117]
herbicidal activity against AMARE (AMARE [5]; application rate 500 g/ha): good (A good herbicidal activity is given at values of at least 70)
herbicidal activity against ECHCG (ECHCG [3]): good (A good herbicidal activity is given at values of at least 70)

Cc1ccccc1-c1cnc(C2CC2)nc1C(=O)O [example 161]
herbicidal activity against APESV (APESV; application rate 1000 g/ha): very good (a very good herbicidal activity is given at values of at least 85)
herbicidal activity against ALOMY (ALOMY): good (A good herbicidal activity is given at values of at least 70)
herbicidal activity against AMARE (AMARE [2]; application rate 1000 g/ha): good (A good herbicidal activity is given at values of at least 70)
herbicidal activity against LOLMU (LOLMU; application rate 1000 g/ha): good (A good herbicidal activity is given at values of at least 70)
herbicidal activity against POLCO (POLCO; application rate 1000 g/ha): good (A good herbicidal activity is given at values of at least 70)

COC(=O)c1nc(C2CC2)ncc1-c1c(Cl)cc(F)cc1Cl [example 208]
herbicidal activity against AMARE (AMARE [5]; application rate 1000 g/ha): good (A good herbicidal activity is given at values of at least 70)
herbicidal activity against APESV (APESV; application rate 1000 g/ha): very good (a very good herbicidal activity is given at values of at least 85)
herbicidal activity against ALOMY (ALOMY): very good (a very good herbicidal activity is given at values of at least 85)
herbicidal activity against AVEFA (AVEFA; application rate 1000 g/ha): very good (a very good herbicidal activity is given at values of at least 85)

COC(=O)c1nc(C2CCC2)ncc1-c1ccccc1C [example 264]
herbicidal activity against APESV (APESV; application rate 1000 g/ha): good (A good herbicidal activity is given at values of at least 70)
herbicidal activity against SETFA (SETFA; application rate 1000 g/ha): very good (a very good herbicidal activity is given at values of at least 85)
herbicidal activity against ABUTH (ABUTH; application rate 1000 g/ha): very good (a very good herbicidal activity is given at values of at least 85)
herbicidal activity against AMARE (AMARE [2]; application rate 1000 g/ha): very good (a very good herbicidal activity is given at values of at least 85)

Cc1ccccc1-c1cnc(-c2ccccc2)nc1C(=O)O [example 271]
herbicidal activity against SETFA (SETFA; application rate 500 g/ha): good (A good herbicidal activity is given at values of at least 70)
herbicidal activity against ABUTH (ABUTH; application rate 500 g/ha): very good (a very good herbicidal activity is given at values of at least 85)
herbicidal activity against ECHCG (ECHCG [1]; application rate 500 g/ha): very good (a very good herbicidal activity is given at values of at least 85)

COC(=O)c1nc(C2CCCO2)ncc1-c1ccccc1C (centres unmarked) [example 276]
herbicidal activity against AMARE (AMARE [5]; application rate 1000 g/ha): very good (a very good herbicidal activity is given at values of at least 85)
herbicidal activity against ABUTH (ABUTH; application rate 1000 g/ha): very good (a very good herbicidal activity is given at values of at least 85)
herbicidal activity against AMARE (AMARE [2]; application rate 1000 g/ha): very good (a very good herbicidal activity is given at values of at least 85)

CN(C)C(=O)c1nc(C2CC2)ncc1-c1ccccc1Cl [example 285]
herbicidal activity against AMARE (AMARE [5]; application rate 500 g/ha): good (A good herbicidal activity is given at values of at least 70)
herbicidal activity against APESV (APESV; application rate 500 g/ha): good (A good herbicidal activity is given at values of at least 70)

CS(=O)(=O)NC(=O)c1nc(C2CC2)ncc1-c1ccccc1Cl [example 286]
herbicidal activity against APESV (APESV; application rate 500 g/ha): very good (a very good herbicidal activity is given at values of at least 85)
herbicidal activity against ECHCG (ECHCG [3]): very good (a very good herbicidal activity is given at values of at least 85)
herbicidal activity against AMARE (AMARE [2]; application rate 500 g/ha): very good (a very good herbicidal activity is given at values of at least 85)
herbicidal activity against LOLMU (LOLMU; application rate 500 g/ha): very good (a very good herbicidal activity is given at values of at least 85)

CN(C)S(=O)(=O)NC(=O)c1nc(C2CC2)ncc1-c1ccccc1Cl [example 287]
herbicidal activity against AMARE (AMARE [5]; application rate 500 g/ha): very good (a very good herbicidal activity is given at values of at least 85)
herbicidal activity against APESV (APESV; application rate 500 g/ha): very good (a very good herbicidal activity is given at values of at least 85)
herbicidal activity against ECHCG (ECHCG [1]; application rate 500 g/ha): very good (a very good herbicidal activity is given at values of at least 85)
herbicidal activity against LOLMU (LOLMU; application rate 500 g/ha): very good (a very good herbicidal activity is given at values of at least 85)
herbicidal activity against POLCO (POLCO; application rate 500 g/ha): very good (a very good herbicidal activity is given at values of at least 85)

NC(=O)c1nc(C2CC2)ncc1-c1ccccc1Cl [example 288]
herbicidal activity against AMARE (AMARE [5]; application rate 500 g/ha): very good (a very good herbicidal activity is given at values of at least 85)
herbicidal activity against APESV (APESV; application rate 500 g/ha): very good (a very good herbicidal activity is given at values of at least 85)
herbicidal activity against POLCO (POLCO; application rate 500 g/ha): very good (a very good herbicidal activity is given at values of at least 85)
herbicidal activity against SETVI (SETVI [6]): very good (a very good herbicidal activity is given at values of at least 85)

COC(=O)CCSC(=O)c1nc(C2CC2)ncc1-c1ccccc1Cl [example 307]
herbicidal activity against APESV (APESV; application rate 250 g/ha): very good (a very good herbicidal activity is given at values of at least 85)
herbicidal activity against AVEFA (AVEFA; application rate 250 g/ha): very good (a very good herbicidal activity is given at values of at least 85)
herbicidal activity against ECHCG (ECHCG [1]; application rate 250 g/ha): good (A good herbicidal activity is given at values of at least 70)
herbicidal activity against LOLMU (LOLMU; application rate 250 g/ha): very good (a very good herbicidal activity is given at values of at least 85)
